Source: the NIST ThermoML archive (doi:10.1021/je700290j)

Experiments:
[1] = for surface tension liquid-gas: Ring tensiometer; for mass density / viscosity / speed of sound: 101 kPa, Liquid; for speed of sound: Sing-around technique in a fixed-path interferometer
[2] = xn = mol fraction of the nth substance listed; conditions: 293.15 K; for surface tension liquid-gas: Ring tensiometer; for speed of sound / mass density / viscosity: 101 kPa, Liquid; for speed of sound: Sing-around technique in a fixed-path interferometer

C1CCNCC1 [piperidine]
[1]
Conditions	mass density [kg/m3]	speed of sound [m/s]	surface tension liquid-gas [mN/m]	viscosity [mPa·s]
293.15 K	859.87	1389.4	30.27	0.8207
298.15 K	–	–	29.56	–

C1CCNC1 [pyrrolidine] + C1CCNCC1
[2]
Conditions	mass density [kg/m3]	speed of sound [m/s]	surface tension liquid-gas [mN/m]	viscosity [mPa·s]
x2 = 0	863.81	1384.4	30.11	1.551
x2 = 0.1043	863.61	1385.4	30.36	1.457
x2 = 0.2304	863.4	1386.3	30.61	1.364
x2 = 0.496	862.79	1388.2	30.56	1.201
x2 = 0.6423	862.19	1390.1	30.51	1.038
x2 = 0.7053	861.89	1390.8	30.47	0.9752
x2 = 0.8273	861.6	1391.5	30.42	0.9124

C1CCNC1 [pyrrolidine]
[1]
Conditions	mass density [kg/m3]	speed of sound [m/s]	surface tension liquid-gas [mN/m]	viscosity [mPa·s]
293.15 K	863.81	1384.4	30.11	1.551
298.15 K	–	–	29.75	–

C1CCNCC1 [piperidine] + C1CCNC1
[2], x1 = 1
Conditions	mass density [kg/m3]	speed of sound [m/s]	surface tension liquid-gas [mN/m]	viscosity [mPa·s]
–	859.87	1389.4	30.27	0.8207
